Reference: paper PMC8185074, “Anchor extension: a structure-guided approach to design cyclic peptides targeting enzyme active sites” (Nature Communications, 2021)
Peptide text beside a SMILES is read from it.

Key:
HDAC2 = molecular target: T1, HDAC2 (Homo sapiens, UniProt Q92769); assay: HDAC2 inhibition, full IC50 measurement (Reaction Biology; fluorogenic p53 peptide RHKK(Ac)AMC); format: biochemical
T1 construct: purchased Reaction Biology Corporation (assay run by the CRO)
Description: (§1) The assay was performed using 50 μM fluorogenic peptide from p53 residues 379-382 [RHKK(Ac)AMC] in a base reaction buffer of 50 mM Tris-HCl at pH 8.0, 137 mM NaCl, 2.7 mM KCl, 1 mM MgCl2, and freshly added 1 mg/ml BSA and 1% DMSO. Peptides were first dissolved in DMSO and then added to the reaction mixture with the enzyme using acoustic technique, enough to reach the desired concentration for that assay point. Peptide concentrations were calculated based on mass of lyophilized peptide and its molecular weight. The substrate was then added and incubated for 1 hour at 30 °C in a sealed container. After the incubation, developer was added to stop the reaction and develop color. Kinetic measurements were then performed for 20 min with Envision with 5 min intervals (Ex/Em = 360/460 nm). The endpoint after plateau was taken for IC50 measurement.
(§2) In cases where duplicate measures are used, average data is reported in the main text or Supplementary Tables.

HDAC6 = molecular target: T2, HDAC6 (Homo sapiens, UniProt Q9UBN7); assay: HDAC6 inhibition, full IC50 measurement (Reaction Biology; fluorogenic p53 peptide RHKK(Ac)AMC); format: biochemical
T2 construct: purchased Reaction Biology Corporation (assay run by the CRO)
T2 sequence (Q9UBN7 1-1215): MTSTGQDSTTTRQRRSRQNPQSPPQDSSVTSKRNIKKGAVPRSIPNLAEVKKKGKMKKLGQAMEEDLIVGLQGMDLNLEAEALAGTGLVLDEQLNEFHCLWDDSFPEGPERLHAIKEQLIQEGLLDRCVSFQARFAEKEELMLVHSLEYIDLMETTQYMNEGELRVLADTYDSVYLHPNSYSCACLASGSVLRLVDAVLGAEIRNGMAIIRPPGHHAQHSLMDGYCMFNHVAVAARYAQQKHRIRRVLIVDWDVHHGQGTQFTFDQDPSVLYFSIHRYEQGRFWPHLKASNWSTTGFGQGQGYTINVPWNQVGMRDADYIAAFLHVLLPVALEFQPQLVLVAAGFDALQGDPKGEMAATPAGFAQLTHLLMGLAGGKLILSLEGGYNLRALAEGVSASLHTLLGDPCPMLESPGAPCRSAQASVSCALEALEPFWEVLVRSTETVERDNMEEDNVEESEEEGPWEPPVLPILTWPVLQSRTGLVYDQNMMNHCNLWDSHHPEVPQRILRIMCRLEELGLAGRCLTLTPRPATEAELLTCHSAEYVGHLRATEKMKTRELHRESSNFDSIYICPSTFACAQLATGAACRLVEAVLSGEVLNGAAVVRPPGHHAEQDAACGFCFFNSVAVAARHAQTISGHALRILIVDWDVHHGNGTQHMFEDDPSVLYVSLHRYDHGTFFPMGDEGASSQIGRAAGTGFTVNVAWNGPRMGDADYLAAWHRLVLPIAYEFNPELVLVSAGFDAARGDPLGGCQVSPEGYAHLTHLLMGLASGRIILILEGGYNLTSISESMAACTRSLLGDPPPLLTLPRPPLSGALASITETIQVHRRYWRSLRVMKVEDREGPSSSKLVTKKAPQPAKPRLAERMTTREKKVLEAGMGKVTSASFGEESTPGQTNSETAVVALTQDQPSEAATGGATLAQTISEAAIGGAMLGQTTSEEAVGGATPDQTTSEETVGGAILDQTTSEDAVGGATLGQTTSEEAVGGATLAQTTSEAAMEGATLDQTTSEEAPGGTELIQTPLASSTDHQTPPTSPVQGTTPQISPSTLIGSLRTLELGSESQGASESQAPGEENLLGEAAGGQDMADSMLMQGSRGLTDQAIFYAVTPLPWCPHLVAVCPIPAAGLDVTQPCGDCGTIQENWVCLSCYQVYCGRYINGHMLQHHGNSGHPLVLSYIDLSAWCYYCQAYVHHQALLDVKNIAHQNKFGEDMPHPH
Description: as §1, §2

T1 sequence (Q92769 whole entry): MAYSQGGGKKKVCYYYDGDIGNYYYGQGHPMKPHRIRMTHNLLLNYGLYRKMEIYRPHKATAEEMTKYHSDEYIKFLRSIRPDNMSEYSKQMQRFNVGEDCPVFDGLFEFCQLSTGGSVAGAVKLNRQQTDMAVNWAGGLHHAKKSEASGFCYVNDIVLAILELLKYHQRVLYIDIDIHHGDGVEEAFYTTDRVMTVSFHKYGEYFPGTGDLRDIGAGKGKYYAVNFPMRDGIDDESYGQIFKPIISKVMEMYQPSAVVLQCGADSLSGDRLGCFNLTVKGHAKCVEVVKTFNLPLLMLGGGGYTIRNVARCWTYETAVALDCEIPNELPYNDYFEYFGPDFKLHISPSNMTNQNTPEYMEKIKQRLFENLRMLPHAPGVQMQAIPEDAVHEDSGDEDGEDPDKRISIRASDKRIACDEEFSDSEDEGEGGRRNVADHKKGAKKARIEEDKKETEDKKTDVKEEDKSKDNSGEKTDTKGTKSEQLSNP

With `CCCC[C@H]1NC(=O)[C@H](Cc2ccccc2)NC(=O)[C@H](CCCCCS)NC(=O)[C@@H](CCCNC(=N)N)NC(=O)[C@H](C)NC(=O)[C@@H](CO)NC(=O)[C@@H](C)NC(=O)[C@H](CCCCN)NC1=O` [des4.3.1.3, SHA-Phe-dNle-Lys-dAla-dSer-Ala-dArg] (HELM PEPTIDE1{A.[dR].[O=C([C@H](CCCCCS)N[*:1])[*:2]].F.[CCCC[C@@H](N[*:1])C(=O)[*:2]].K.[dA].[dS]}$PEPTIDE1,PEPTIDE1,1:R1-8:R2$$$V2.0) the “HDAC2 activity raw data (signal)” value (HDAC2; Conc. 1.00E-05 M, t1) was 193929, the “HDAC2 activity raw data (signal)” value (HDAC2; Conc. 1.00E-05 M, t2) was 207672 and the “HDAC2 activity raw data (signal)” value (HDAC2; Conc. 1.11E-06 M, t1) was 922315. The “HDAC2 activity raw data (signal)” value (HDAC2; Conc. 1.11E-06 M, t2) was 983057, the “HDAC2 activity raw data (signal)” value (HDAC2; Conc. 1.23E-07 M, t1) was 1473586 and the “HDAC2 activity raw data (signal)” value (HDAC2; Conc. 1.23E-07 M, t2) was 1600746. The “HDAC2 activity raw data (signal)” value (HDAC2; Conc. 1.37E-08 M, t1) was 1736023, the “HDAC2 activity raw data (signal)” value (HDAC2; Conc. 1.37E-08 M, t2) was 1721378 and the “HDAC2 activity raw data (signal)” value (HDAC2; Conc. 1.52E-09 M, t1) was 1807312. For the same compound, the “HDAC2 activity raw data (signal)” value (HDAC2; Conc. 1.52E-09 M, t2) was 1809308, the “HDAC2 activity raw data (signal)” value (HDAC2; Conc. 3.33E-06 M, t1) was 507679 and the “HDAC2 activity raw data (signal)” value (HDAC2; Conc. 3.33E-06 M, t2) was 555133. The “HDAC2 activity raw data (signal)” value (HDAC2; Conc. 3.70E-07 M, t1) was 1323328, the “HDAC2 activity raw data (signal)” value (HDAC2; Conc. 3.70E-07 M, t2) was 1396903 and the “HDAC2 activity raw data (signal)” value (HDAC2; Conc. 4.12E-08 M, t1) was 1569368. For the same compound, the “HDAC2 activity raw data (signal)” value (HDAC2; Conc. 4.12E-08 M, t2) was 1738468, the “HDAC2 activity raw data (signal)” value (HDAC2; Conc. 4.57E-09 M, t1) was 1706591 and the “HDAC2 activity raw data (signal)” value (HDAC2; Conc. 4.57E-09 M, t2) was 1632561. For the same compound, the “HDAC2 activity raw data (signal)” value (HDAC2; Conc. 5.08E-10 M, t1) was 1698338, the “HDAC2 activity raw data (signal)” value (HDAC2; Conc. 5.08E-10 M, t2) was 1730008 and the “6-Selectivity: fold potency for HDAC6 over HDAC2” value (HDAC6) was 140 fold. The “HDAC6 activity raw data (signal)” value (HDAC6; Conc. 1.00E-05 M, t1) was -1435, the “HDAC6 activity raw data (signal)” value (HDAC6; Conc. 1.00E-05 M, t2) was 8169 and the “HDAC6 activity raw data (signal)” value (HDAC6; Conc. 1.11E-06 M, t1) was 31133. For the same compound, the “HDAC6 activity raw data (signal)” value (HDAC6; Conc. 1.11E-06 M, t2) was 32571, the “HDAC6 activity raw data (signal)” value (HDAC6; Conc. 1.23E-07 M, t1) was 145819 and the “HDAC6 activity raw data (signal)” value (HDAC6; Conc. 1.23E-07 M, t2) was 156860. For the same compound, the “HDAC6 activity raw data (signal)” value (HDAC6; Conc. 1.37E-08 M, t1) was 703698, the “HDAC6 activity raw data (signal)” value (HDAC6; Conc. 1.37E-08 M, t2) was 730719 and the “HDAC6 activity raw data (signal)” value (HDAC6; Conc. 1.52E-09 M, t1) was 1278425. For the same compound, the “HDAC6 activity raw data (signal)” value (HDAC6; Conc. 1.52E-09 M, t2) was 1354635, the “HDAC6 activity raw data (signal)” value (HDAC6; Conc. 3.33E-06 M, t1) was -1405 and the “HDAC6 activity raw data (signal)” value (HDAC6; Conc. 3.33E-06 M, t2) was 24989. For the same compound, the “HDAC6 activity raw data (signal)” value (HDAC6; Conc. 3.70E-07 M, t1) was 60632, the “HDAC6 activity raw data (signal)” value (HDAC6; Conc. 3.70E-07 M, t2) was 66340 and the “HDAC6 activity raw data (signal)” value (HDAC6; Conc. 4.12E-08 M, t1) was 363100. For the same compound, the “HDAC6 activity raw data (signal)” value (HDAC6; Conc. 4.12E-08 M, t2) was 336992, the “HDAC6 activity raw data (signal)” value (HDAC6; Conc. 4.57E-09 M, t1) was 1071704 and the “HDAC6 activity raw data (signal)” value (HDAC6; Conc. 4.57E-09 M, t2) was 1051810. The “HDAC6 activity raw data (signal)” value (HDAC6; Conc. 5.08E-10 M, t1) was 1597632 and the “HDAC6 activity raw data (signal)” value (HDAC6; Conc. 5.08E-10 M, t2) was 1554939.

With `CCCC[C@H]1NC(=O)[C@H](Cc2ccccc2)NC(=O)[C@H](CCCCCS)NC(=O)[C@@H](CO)NC(=O)[C@H](CC(=O)O)NC(=O)[C@@H](CO)NC(=O)[C@@H](C)NC(=O)[C@H](CCCCN)NC1=O` [des4.3.1.1, SHA-Phe-dNle-Lys-dAla-dSer-Asp-dSer] (HELM PEPTIDE1{D.[dS].[O=C([C@H](CCCCCS)N[*:1])[*:2]].F.[CCCC[C@@H](N[*:1])C(=O)[*:2]].K.[dA].[dS]}$PEPTIDE1,PEPTIDE1,1:R1-8:R2$$$V2.0) the “HDAC2 activity raw data (signal)” value (HDAC2; Conc. 1.00E-05 M, t1) was 1283086, the “HDAC2 activity raw data (signal)” value (HDAC2; Conc. 1.00E-05 M, t2) was 1486401 and the “HDAC2 activity raw data (signal)” value (HDAC2; Conc. 1.11E-06 M, t1) was 1660902. The “HDAC2 activity raw data (signal)” value (HDAC2; Conc. 1.11E-06 M, t2) was 1799195, the “HDAC2 activity raw data (signal)” value (HDAC2; Conc. 1.23E-07 M, t1) was 1764651 and the “HDAC2 activity raw data (signal)” value (HDAC2; Conc. 1.23E-07 M, t2) was 1879798. The “HDAC2 activity raw data (signal)” value (HDAC2; Conc. 1.37E-08 M, t1) was 1818162, the “HDAC2 activity raw data (signal)” value (HDAC2; Conc. 1.37E-08 M, t2) was 1980324 and the “HDAC2 activity raw data (signal)” value (HDAC2; Conc. 1.52E-09 M, t1) was 1787655. The “HDAC2 activity raw data (signal)” value (HDAC2; Conc. 1.52E-09 M, t2) was 1860263, the “HDAC2 activity raw data (signal)” value (HDAC2; Conc. 3.33E-06 M, t1) was 1631295 and the “HDAC2 activity raw data (signal)” value (HDAC2; Conc. 3.33E-06 M, t2) was 1725891. The “HDAC2 activity raw data (signal)” value (HDAC2; Conc. 3.70E-07 M, t1) was 1679365, the “HDAC2 activity raw data (signal)” value (HDAC2; Conc. 3.70E-07 M, t2) was 1920676 and the “HDAC2 activity raw data (signal)” value (HDAC2; Conc. 4.12E-08 M, t1) was 1853084. For the same compound, the “HDAC2 activity raw data (signal)” value (HDAC2; Conc. 4.12E-08 M, t2) was 2007168, the “HDAC2 activity raw data (signal)” value (HDAC2; Conc. 4.57E-09 M, t1) was 1817065 and the “HDAC2 activity raw data (signal)” value (HDAC2; Conc. 4.57E-09 M, t2) was 1855125. For the same compound, the “HDAC2 activity raw data (signal)” value (HDAC2; Conc. 5.08E-10 M, t1) was 1872757, the “HDAC2 activity raw data (signal)” value (HDAC2; Conc. 5.08E-10 M, t2) was 1875796 and the “6-Selectivity: fold potency for HDAC6 over HDAC2” value (HDAC6) was 31.25 fold. The “HDAC6 activity raw data (signal)” value (HDAC6; Conc. 1.00E-05 M, t1) was 121881, the “HDAC6 activity raw data (signal)” value (HDAC6; Conc. 1.00E-05 M, t2) was 130414 and the “HDAC6 activity raw data (signal)” value (HDAC6; Conc. 1.11E-06 M, t1) was 580651. The “HDAC6 activity raw data (signal)” value (HDAC6; Conc. 1.11E-06 M, t2) was 615445, the “HDAC6 activity raw data (signal)” value (HDAC6; Conc. 1.23E-07 M, t1) was 1294999 and the “HDAC6 activity raw data (signal)” value (HDAC6; Conc. 1.23E-07 M, t2) was 1440536. The “HDAC6 activity raw data (signal)” value (HDAC6; Conc. 1.37E-08 M, t1) was 1520011, the “HDAC6 activity raw data (signal)” value (HDAC6; Conc. 1.37E-08 M, t2) was 1756812 and the “HDAC6 activity raw data (signal)” value (HDAC6; Conc. 1.52E-09 M, t1) was 1628369. The “HDAC6 activity raw data (signal)” value (HDAC6; Conc. 1.52E-09 M, t2) was 1677368, the “HDAC6 activity raw data (signal)” value (HDAC6; Conc. 3.33E-06 M, t1) was 268413 and the “HDAC6 activity raw data (signal)” value (HDAC6; Conc. 3.33E-06 M, t2) was 332099. For the same compound, the “HDAC6 activity raw data (signal)” value (HDAC6; Conc. 3.70E-07 M, t1) was 971918, the “HDAC6 activity raw data (signal)” value (HDAC6; Conc. 3.70E-07 M, t2) was 981413 and the “HDAC6 activity raw data (signal)” value (HDAC6; Conc. 4.12E-08 M, t1) was 1459081. The “HDAC6 activity raw data (signal)” value (HDAC6; Conc. 4.12E-08 M, t2) was 1648611, the “HDAC6 activity raw data (signal)” value (HDAC6; Conc. 4.57E-09 M, t1) was 1570327 and the “HDAC6 activity raw data (signal)” value (HDAC6; Conc. 4.57E-09 M, t2) was 1728944. The “HDAC6 activity raw data (signal)” value (HDAC6; Conc. 5.08E-10 M, t1) was 1620579 and the “HDAC6 activity raw data (signal)” value (HDAC6; Conc. 5.08E-10 M, t2) was 1733616.
